From patent publication US11564394B2, “Distorted gold (I)-phosphine complexes and methods for use as antifungal agents” (University of Kentucky Research Foundation, priority 2019, dated 2023)
Several values for one entry are separate records, joined by “and”; a condition that tells them apart may be missing. Identical values can stand only once. Like-named read-outs stand apart in the source and are kept apart here.

Columns and labels:
[1] = system: BEAS-2B; assay: Mammalian cytotoxicity assay (resazurin cell viability); format: cell-based; conditions: BEAS-2B (human bronchial epithelial); read-out: IC50 for mammalian cell lines
Text: (§1) For cytotoxicity assays, the human embryonic kidney cell line (HEK-293) was purchased from the ATCC. The human bronchial epithelial cell line (BEAS-2B), the human lung carcinoma cell line (A549), and the mouse macrophage cell line (J774A.1) were generous gifts from Prof. David K. Orren (University of Kentucky, Lexington, Ky.), Prof. Markos Leggas (University of Kentucky, Lexington, Ky.), and Prof. David J. Feola (University of Kentucky, Lexington, Ky.), respectively. A549, HEK-293, and BEAS-2B cells were cultured in Dulbecco's Modified Eagle's Medium (DMEM, catalog #VWRL0100, VWR, Chicago, Ill.) supplemented with 10% fetal bovine serum (FBS; from ATCC) and 1% penicillin/streptomycin (from ATCC) at 37° C. with 5% CO2. The J774A.1 cells were cultured in DMEM (catalog #30-2002, ATCC, Manassas, Va.), which was also supplemented with FBS and antibiotics and grown at 37° C. with 5% CO2.
(§2) To examine whether the compounds are safe for human cells, cytotoxicity assays were done against four mammalian cell lines: HEK-293, A549, BEAS-2B, and J774A.1 cells. […] HEK-293 and J774A.1 cells were plated at 1×10^4 cells/mL while A549 and BEAS-2B were plated at 3×10^3 cells/mL. Compounds were tested in concentrations ranging from 0.06 to 15.6 μg/mL with final concentration of DMSO at 0.5% (FIG. 4A-D).

[2] = system: J774A.1; assay: as above; format: cell-based; conditions: J774A.1 (murine macrophage); read-out: IC50 for mammalian cell lines
Text: as §1, §2

[3] = system: A549; assay: as above; format: cell-based; conditions: A549 (human lung carcinoma); read-out: IC50 for mammalian cell lines
Text: as §1, §2

[4] = system: HEK-293; assay: as above; format: cell-based; conditions: HEK-293 (human embryonic kidney); read-out: IC50 for mammalian cell lines
Text: as §1, §2

[5] = system: C. albicans ATCC 90819(R) (strain G); format: cell-based, Candida albicans; conditions: strain G = C. albicans ATCC 90819(R); MIC-0; 48 h; listed as printed without letter, below G
[6] = system: C. albicans ATCC 64124(R) (strain F); format: cell-based, Candida albicans; conditions: strain F = C. albicans ATCC 64124(R); MIC-0; 48 h; listed as printed beside letter G
[7] = system: C. neoformans CN3 (strain P); assay: MIC determination (broth microdilution); format: cell-based, Cryptococcus neoformans; conditions: MIC-0, 72 h at 35° C.
[8] = system: C. auris AR Bank # 0384 (strain K); assay: MIC determination (broth microdilution); format: cell-based, Candida auris; conditions: strain K = C. auris AR Bank # 0384; MIC-0; 48 h (CAS read at 24 h); Table 1; also in Table 2
[9] = system: C. albicans ATCC MYA-2876(S) (strain E); assay: MIC determination (broth microdilution); format: cell-based, Candida albicans; conditions: strain E = C. albicans ATCC MYA-2876(S); MIC-0; 48 h; listed as printed beside letter F
[10] = system: C. albicans ATCC 10231 (strain B) pre-formed biofilm; assay: Disruption of pre-formed biofilm (XTT); format: cell-based, Candida albicans; conditions: for Pre-formed biofilm SMIC90: biofilm treated at 24 h, XTT
[11] = system: C. auris AR Bank # 0385 (strain IV); assay: MIC determination (broth microdilution); format: cell-based, Candida auris; conditions: strain IV = C. auris AR Bank # 0385; MIC-0; 48 h (CAS read at 24 h)
[12] = system: C. auris AR Bank # 0384 (strain K) pre-formed biofilm; format: cell-based, Candida auris; conditions: biofilm treated at 24 h, XTT
[13] = system: four mammalian cell lines (A549, BEAS-2B, HEK-293, J774A.1); assay: Mammalian cytotoxicity assays, summary over cell lines; format: cell-based; conditions: for IC50: read-out: IC50 values (range over cell lines); for cell survival: at 15.6 μg/mL, excluding auranofin with J774A.1
Text: as §1, §2

[14] = system: C. albicans ATCC MYA-1003(R) (strain A); format: cell-based, Candida albicans; conditions: strain A = C. albicans ATCC MYA-1003(R); MIC-0; 48 h at 35° C.
[15] = system: C. albicans ATCC MYA-1237(R) (strain C); format: cell-based, Candida albicans; conditions: strain C = C. albicans ATCC MYA-1237(R); MIC-0; 48 h; listed as printed beside letter D
[16] = system: C. neoformans CN1 (strain N); assay: MIC determination (broth microdilution); format: cell-based, Cryptococcus neoformans; conditions: MIC-0, 72 h at 35° C.
[17] = system: C. auris AR Bank # 0390 (strain L); assay: MIC determination (broth microdilution); format: cell-based, Candida auris; conditions: strain L = C. auris AR Bank # 0390; MIC-0; 48 h (CAS read at 24 h); Table 1 row printed without letter, below L; also in Table 2
[18] = system: C. auris AR Bank # 0382 (strain II); assay: MIC determination (broth microdilution); format: cell-based, Candida auris; conditions: strain II = C. auris AR Bank # 0382; MIC-0; 48 h (CAS read at 24 h)
[19] = system: fungal strains (Candida spp., Cryptococcus spp., Aspergillus spp., Fusarium spp.); assay: MIC determination, summary statements over the strain panel; format: cell-based; conditions: for overall assessment as antifungals: panel of twenty fungal strains (Table 1)
[20] = system: C. auris AR Bank # 0388 (strain VII); assay: MIC determination (broth microdilution); format: cell-based, Candida auris; conditions: strain VII = C. auris AR Bank # 0388; MIC-0; 48 h (CAS read at 24 h)

Compound | IC50 [1] [µM] | IC50 [2] [µM] | IC50 [3] [µM] | IC50 [4] [µM] | MIC [5] [µg/mL] | MIC (in parentheses) [5] [µM] | MIC [6] [µg/mL] | MIC (in parentheses) [6] [µM] | MIC [7] [µg/mL] | MIC (in parentheses) [7] [µM] | MIC [8] | MIC (in parentheses) [8] [µM] | MIC [9] [µg/mL] | MIC (in parentheses) [9] [µM] | Pre-formed biofilm SMIC90 [10] [µg/mL] | Pre-formed biofilm SMIC90 [12] [µg/mL] | cell survival [13] | MIC [14] [µg/mL] | MIC (in parentheses) [14] [µM] | MIC [15] [µg/mL] | further results
bis-[1,2-bis[(2S,5S)-2,5-dimethylphospholano]benzene]gold(I) [Compound 4] | 2 ± 0.3 | 1.5 ± 0.1 | 4.5 | 1.9 ± 0.7 | 0.98 | 1.2 | 0.98 | 1.2 | 0.98 | 1.2 | 3.9 µg/mL and 3.96 µg/mL | 4.6 | 0.98 | 1.2 | 7.8 | 7.8 | no cell survival | 0.98 | 1.2 | 0.98 | SMIC90 of pre-formed biofilm relative to MIC with planktonic cells [10]: 4 fold; MIC [11]: 1.95 µg/mL; MIC (in parentheses) [11]: 2.3 µM; IC50 ([13]; BEAS-2B, HEK-293, and J774A.1): 1.5 to 2 µM; MIC (in parentheses) [15]: 1.2 µM; MIC [16]: 0.98 µg/mL; MIC (in parentheses) [16]: 1.2 µM; MIC [17]: 7.8 µg/mL; MIC (in parentheses) [17]: 9.2 µM; MIC [18]: 1.95 µg/mL; MIC (in parentheses) [18]: 2.3 µM; overall assessment as antifungals [19]: great promise; antifungal activity class ([19]; two C. auris strains (K and L)): good (MIC = 3.9-7.8 μg/mL (good antifungal activity)); MIC [20]: 1.95 µg/mL; MIC (in parentheses) [20]: 2.3 µM
CC(=O)OC[C@H]1O[C@@H]([S-])[C@H](OC(C)=O)[C@@H](OC(C)=O)[C@@H]1OC(C)=O.CCP(CC)CC.[Au+] [Auranofin, auranofin, reference compound] | 1.3 ± 0.1 | 16.2 | 0.5 ± 0.1 | 3 ± 0.2 | > 31.3 | > 46.1 | > 31.3 | > 46.1 | 3.9 | 5.7 | > 31.3 µg/mL | > 46.1 | > 31.3 | > 46.1 | 7.8 | >31.3 | no cell survival | > 31.3 | > 46.1 | > 31.3 | Pre-formed biofilm SMIC90 ([10]; listed as auranofin): the same SMIC90 as compound 4; IC50 ([13]; A549, BEAS-2B, and HEK-293 cell lines): 0.5 to 3 µM; MIC (in parentheses) [15]: > 46.1 µM; MIC [16]: 3.9 µg/mL; MIC (in parentheses) [16]: 5.7 µM; MIC [17]: > 31.3 µg/mL; MIC (in parentheses) [17]: > 46.1 µM; MIC ([19]; Candida spp.): > 31.3 µg/mL; antifungal activity ([19]; Candida spp.): no antifungal activity; antifungal activity class ([19]; Candida spp.): poor (MIC ≥15.6 μg/mL (poor antifungal activity)); MIC ([19]; two Aspergillus spp.): 3.9 µg/mL and 7.8 µg/mL; antifungal activity class ([19]; two Aspergillus spp.): good (MIC = 3.9-7.8 μg/mL (good antifungal activity))
bis-[1,2-bis[(2R,5R)-2,5-dimethylfphospholano]benzene]gold(1) [Compound 6] | 4.9 ± 0.3 | 1.5 ± 0.1 | 2.5 ± 0.2 | 5.7 ± 0.5 | 0.49 | 0.6 | 0.49 | 0.6 | 0.49 | 0.6 | 1.95 µg/mL | 2.3 | 0.49 | 0.6 | 3.9 | 7.8 | no cell survival | 0.49 | 0.6 | 0.98 | SMIC90 of pre-formed biofilm relative to MIC with planktonic cells [10]: 4 fold; MIC [11]: 1.95 µg/mL; MIC (in parentheses) [11]: 2.3 µM; MIC (in parentheses) [15]: 1.2 µM; MIC [16]: 0.49 µg/mL; MIC (in parentheses) [16]: 0.6 µM; MIC [17]: 1.95 µg/mL; MIC (in parentheses) [17]: 2.3 µM; MIC [18]: 0.98 µg/mL; MIC (in parentheses) [18]: 1.2 µM; overall assessment as antifungals [19]: great promise; MIC [20]: 1.95 µg/mL; MIC (in parentheses) [20]: 2.3 µM
